Test results published in publication PMC9118553, “In Vivo Bioconcentration of 10 Anionic Surfactants in Rainbow Trout Explained by In Vitro Data on Partitioning and S9 Clearance” (Environmental Science & Technology, 2022).
Several values for one entry are separate records, joined by “and”; a condition that tells them apart may be missing. Identical values can stand only once. Marks after values point to notes of the source that are not given here.

Assays:
[1] = tested on: rainbow trout; experiment: In vivo bioconcentration experiment with a mixture of anionic surfactants, flow-through aquaria, 10 °C, pH 7.8; settings: for Log BCF: determined with measured concentrations in water; for Concentration in fish: individual fish;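 for Uptake rate constant kU: L kg-1 h-1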
Description: The bioconcentration of a mixture of 10 anionic surfactants was measured in rainbow trout in water at pH 7.8. […] The experiment was conducted in flow-through aquaria with juvenile rainbow trout at 10 °C. Ethical approval for the experiments was obtained from Stockholms […] (decision 9967-2017). The fish, fish housing, fish handling, and procedure for introducing the mixture of […] chemicals were very similar to our previous study with cationic surfactants;[5] details are provided in Text S1. The experiment consisted of a 4-day exposure phase and a 7-day depuration phase. […] Water samples were collected and fish were sacrificed according to the schedule in Table S4. The water samples were collected just prior to the daily removal of feces from the aquarium. Triplicate samples were taken at each time point. […] The water/methanol mixture was analyzed using liquid chromatography-mass spectrometry (LC-MS)/MS as described below for fish. At each fish sampling, five fish were sacrificed. Following stunning and severance of the spinal cord, the whole fish were placed in a polyethylene bag, weighed, and immediately frozen at -20 °C. The weight of the individual fish at sacrifice was 24.0 ± 5.6 g. Three of the five fish from each time point were prioritized for analysis based on proximity to the median fish weight. Each fish was […] homogenized with an Ultra-turrax dispersing device. […] This mixture was homogenized in a bullet blender for 5 min and then placed in an ultrasound bath at 45 °C for 15 min. Following centrifugation for 15 min@3200 RCF, the supernatant was decanted and the extraction was repeated. The extracts were combined. For instrumental analysis, 5 μL of the fish extract or 60 μL of the water/methanol mixture (water samples) was separated on an Acquity UPLC BEH C18 column fitted with a BEH C18 pre-column and analyzed on a TSQ Quantiva triple quadrupole mass spectrometer. The mobile phase was methanol (10 mM ammonium acetate) and Milli-Q-filtered water (10 mM ammonium acetate) (see Table S5 for the liquid chromatography program). To avoid detergent blank peaks originating from cleaning mobile phase bottles, the methanol was prepared directly in the solvent bottle as delivered and Milli-Q was tapped into an empty methanol bottle. Furthermore, a guard column was fitted between the mobile phase and the autosampler to prevent background contamination from disturbing the analysis. All analytes were quantified against the BEHP internal standard, as it gave better reproducibility. […] The central goal of the analysis was to estimate kU and kT as well as the BCF (=kU/kT) from measurements of surfactant concentration in fish and water samples collected at different time points of the experiment. For the fish, only those time points were included for which CF(measured) was above the limit of quantitation (LOQ) in all three fish (data below the LOQ will have a positive bias; including them would result in a negative bias in kT). In this analysis, there exist two sources of uncertainty: first, uncertainty in the actual concentration in water CW at the time of sample collection and second, variability in the concentration in fish around the (expected) surfactant concentrations in fish assumed to follow model (1). We therefore set up a model in which we considered uncertainty in both water and fish measurements simultaneously by assuming a parametric model for the surfactant concentration in the water over time (either linear or quadratic) and accounted for the uncertainty in the corresponding parameters of the water model during the estimation of kU and kT. This was done in a joint Bayesian model that we estimated via Hamiltonian Monte Carlo. […]

[2] = Baseline screening BCF (0.0125 DMLW, equilibrium partitioning, no biotransformation); settings: for Log baseline BCF: determined as 0.0125 DMLW
Text: Recently, the concept of a baseline screening BCF was introduced for surfactants, based on equilibrium partitioning assuming no biotransformation.[19] The baseline screening BCF for the study chemicals exceeded the measured BCF by 1–2.5 orders of magnitude (Table S16), providing further evidence that biotransformation is an important factor influencing the elimination—and thereby the BCF—of the anionic surfactants studied here in rainbow trout. The deviation of PFOA and PFOS from the regression between BCF and DMLW (Figure 1, upper panel) is attributable to them not being biotransformed.
Table S16: Comparison of the BCF (determined with the measured concentrations in water) and the baseline screening BCF (determined as 0.0125 DMLWa)
CHEMICAL Log BCF Log baseline BCF Log difference […]
a Droge, S. T. J.; Scherpenisse, P.; Arnot, J. A.; Armitage, J. M.; McLachlan, M. S.; Nichols, J.; von der Ohe, P.; Bonnell, M.; Hodges, G. Screening the baseline fish bioconcentration potential of various types of surfactants using phospholipid binding data. Environ. Sci.: Processes Impacts

[3] = determined using nominal concentrations in water
[4] = from measured concentrations in water, Bayesian estimate, 95% credible interval in brackets
[5] = measured concentrations in water, simpler estimation method (Text S3), 95% confidence intervals in brackets

Compound | BCF [1, 3] | Log BCF [1] | Concentration in fish ([1]; elimination phase, 97 h) | Concentration in fish ([1]; elimination phase, 98 h) | Concentration in fish ([1]; elimination phase, 100 h) | Concentration in fish ([1]; elimination phase, 103 h) | Concentration in fish ([1]; elimination phase, 120 h) | Concentration in fish ([1]; elimination phase, 128 h) | Concentration in fish ([1]; elimination phase, 144 h) | Concentration in fish ([1]; elimination phase, 168 h) | Concentration in fish ([1]; elimination phase, 192 h) | Concentration in fish ([1]; elimination phase, 264 h) | Concentration in fish ([1]; exposure phase, 1 h) | Concentration in fish ([1]; exposure phase, 2 h) | Concentration in fish ([1]; exposure phase, 3 h) | Concentration in fish ([1]; exposure phase, 4 h) | Concentration in fish ([1]; exposure phase, 6 h) | Concentration in fish ([1]; exposure phase, 24 h) | Concentration in fish ([1]; exposure phase, 48 h) | Concentration in fish ([1]; exposure phase, 72 h) | other results
CCCCCCCCCCCS(=O)(=O)O [C11SO3, undecylsulfonate] | 0.137 L kg-1 ww | -0.87 L kg-1 ww | 5.5 ng g-1 ww and 3.8 ng g-1 ww and 3.2 ng g-1 ww | 3.2 ng g-1 ww and 2.8 ng g-1 ww and 30.6 ng g-1 ww | 14.1 ng g-1 ww and 2.8 ng g-1 ww and 3.1 ng g-1 ww | 2.2 ng g-1 ww and 3.0 ng g-1 ww and 6.7 ng g-1 ww | 0.58 ng g-1 ww and 0.87 ng g-1 ww and 0.78 ng g-1 ww | 0.53 ng g-1 ww and 0.50 ng g-1 ww and 0.58 ng g-1 ww | 0.49 ng g-1 ww and 0.42 ng g-1 ww and 0.53 ng g-1 ww | 0.56 ng g-1 ww and 0.41 ng g-1 ww and 0.22 ng g-1 ww | 0.10 ng g-1 ww and 0.19 ng g-1 ww (2×) | 1.49 ng g-1 ww and 0.23 ng g-1 ww and 0.19 ng g-1 ww | 3.2 ng g-1 ww and 1.5 ng g-1 ww and 8.4 ng g-1 ww | 2.1 ng g-1 ww and 1.9 ng g-1 ww and 1.4 ng g-1 ww | 2.9 ng g-1 ww and 3.6 ng g-1 ww and 3.2 ng g-1 ww | 3.5 ng g-1 ww and 13.4 ng g-1 ww and 41 ng g-1 ww | 4.7 ng g-1 ww and 5.0 ng g-1 ww and 3.8 ng g-1 ww | 5.5 ng g-1 ww and 4.2 ng g-1 ww and 3.8 ng g-1 ww | 4.4 ng g-1 ww and 5.1 ng g-1 ww and 3.7 ng g-1 ww | 7.2 ng g-1 ww and 5.2 ng g-1 ww and 4.9 ng g-1 ww | Concentration in fish ([1]; exposure phase, 96 h): 8.1 ng g-1 ww and 7.8 ng g-1 ww and 5.3 ng g-1 ww; BCF (steady-state) ([1]; steady-state BCF, plateau 6-96 h, measured concentrations in water, 95% confidence interval in brackets): 0.136 ^d (0.114–0.158) L kg^–1 ww; Log difference (baseline BCF vs BCF) [2]: 2.35 L kg-1 ww; Log baseline BCF [2]: 1.49 L kg-1 ww
CCCCCCCCCCCCOCCOCCOCCOCCOS(=O)(=O)O [C12-EO4-SO4, dodecyltetraethoxysulfate] | 1.42 L kg-1 ww | -0.05 L kg-1 ww | 35 ng g-1 ww and 26 ng g-1 ww and 27 ng g-1 ww | 17.6 ng g-1 ww and 19.9 ng g-1 ww and 15.8 ng g-1 ww | 35.9 ng g-1 ww and 14.4 ng g-1 ww and 21 ng g-1 ww | 11.6 ng g-1 ww and 16.1 ng g-1 ww and 15.1 ng g-1 ww | 7.0 ng g-1 ww and 8.6 ng g-1 ww and 3.1 ng g-1 ww | 5.5 ng g-1 ww and 7.5 ng g-1 ww and 4.5 ng g-1 ww | 4.7 ng g-1 ww and 5.3 ng g-1 ww and 4.5 ng g-1 ww | 4.1 ng g-1 ww and 2.7 ng g-1 ww and 1.8 ng g-1 ww | 1.6 ng g-1 ww and 3.6 ng g-1 ww and 1.8 ng g-1 ww | 3.3 ng g-1 ww and 2.4 ng g-1 ww and 1.5 ng g-1 ww | 4.3 ng g-1 ww and 6.7 ng g-1 ww and 6.6 ng g-1 ww | 6.7 ng g-1 ww and 8.9 ng g-1 ww and 6.4 ng g-1 ww | 12.1 ng g-1 ww and 10.4 ng g-1 ww and 10.6 ng g-1 ww | 14.5 ng g-1 ww and 16.2 ng g-1 ww and 14.2 ng g-1 ww | 23 ng g-1 ww and 18.6 ng g-1 ww and 13.5 ng g-1 ww | 24 ng g-1 ww and 34 ng g-1 ww and 23 ng g-1 ww | 26 ng g-1 ww and 33 ng g-1 ww and 38 ng g-1 ww | 30 ng g-1 ww and 39 ng g-1 ww and 35 ng g-1 ww | Elimination rate constant kT [1, 3]: 0.114 h⁻¹; Uptake rate constant kU [1, 3]: 0.162 L/kg/h; Concentration in fish ([1]; exposure phase, 96 h): 45 ng g-1 ww and 27 ng g-1 ww and 42 ng g-1 ww; Elimination rate constant kT [1, 4]: 0.100 (0.083–0.120) h^–1; Uptake rate constant kU [1, 4]: 0.090 (0.074–0.109) L kg^–1 ww h^–1; diffusion coefficient (D) in the epithelial membrane of the gills ([1]; in vivo): 2.0 × 10^–8 m h^–1; BCF (kinetic) ([1]; kinetic BCF from measured concentrations in water, 95% credible interval in brackets): 0.89 (0.80–1.01) L kg^–1 ww; BCF [1, 5]: 0.92 (29) L kg-1 ww; Elimination rate constant kT [1, 5]: 0.098 (26) h-1; Uptake rate constant kU [1, 5]: 0.090 (12) L kg-1 ww h-1; Log difference (baseline BCF vs BCF) [2]: 2.38 L kg-1 ww; Log baseline BCF [2]: 2.34 L kg-1 ww
